Patent US20030119910A1, “Therapeutic or preventing agent for diseases caused by decrease in the expression level of klotho protein” (Kyowa Hakko Kogyo Co., Ltd., priority 2001, published 2003)

Experiments:
Format in all cases: in vivo, mouse
[1] = test system: male homozygous klotho mutant mice; assay: Male klotho mutant homozygotes raised on feed: indices of premature aging-like syndrome (blood sugar, serum inorganic phosphorus, body weight); details: ornithine in feed
Text: (§1) Mice carrying a klotho mutation were bred by mating a pair of heterozygous klotho mutant mice provided by Tumor Biology, Pathology, Kyoto University Graduate School of Medicine. Klotho mutant homozygotes, klotho mutant heterozygotes and wild-type mice were confirmed by PCR. Male klotho mutant homozygotes were raised on the feed prepared in Example 1 or the feed prepared in Comparative Example 1 and were intermittently weighed (number of animals: 4/group). The mice were given the powdery feed through a commercially available powder feeder (KN-675 No. 4, Natsume Seisakusho) and filtered running water, both ad libitum. The mice were raised in an SPF (specific pathogen-free) room kept at a temperature of 24±1° C. and a humidity of 55±10%. The expression level of Klotho protein was expressed as relative values based on the average value of the group raised on the feed of Comparative Example 1 up to the age of 6 weeks as 100.

[2] = test system: Klotho protein; assay: Expression level of Klotho protein in the kidneys of male klotho mutant homozygotes raised on feed; details: male homozygous klotho mutant mice, ornithine in feed
Text: The determination of Klotho protein can be carried out by methods such as immune precipitation, Western blotting and enzyme-linked immunosorbent assay (ELISA) using an anti-Klotho protein antibody, and the determination of mRNA for the klotho gene can be carried out by methods such as Northern blot hybridization and reverse transcription-polymerase chain reaction (RT-PCR). The determination methods and methods for obtaining tissue samples, klotho gene, Klotho protein, probe DNA, primers, antibodies, etc. to be used in the determination are described in WO 98/29544.
as §1, with “The mice were raised in an SPF (specific pathogen-free) room kept at a temperature of 24±1° C. and a humidity of 55±10%.” left out

[3] = test system: female klotho mutant homozygotes; assay: Body weight of female klotho mutant homozygotes raised on feed; details: female homozygous individuals, ornithine in feed
Text: as §1, with “The mice were raised in an SPF (specific pathogen-free) room kept at a temperature of 24±1° C. and a humidity of 55±10%.” left out
Female klotho mutant homozygotes obtained by the same method as in Example 3 were raised on the feed of Example 1 or the feed of Comparative Example 1 in the same manner as in Example 3 up to the age of 8 weeks, and their body weight was measured. […]
Female klotho mutant homozygotes obtained by the same method as in Example 3 were raised on the feed of Example 2 or the feed of Comparative Example 2 in the same manner as in Example 3 up to the age of 6 weeks, and their body weight was measured. […]

[4] = test system: female klotho mutant homozygotes; assay: Life span of female klotho mutant homozygotes raised on feed; details: ornithine in feed
Text: Female klotho mutant homozygotes obtained by the same method as in Example 3 were raised on the feed of Example 1, the feed of Comparative Example 1, the feed of Example 2 or the feed of Comparative Example 2 (number of animals: 4/group) to observe their life span. The number of mice that died before reaching the age of 11 weeks was 0 and 2 in the groups fed on the feed of Example 1 and the feed of Comparative Example 1, respectively, and was 1 and 2 in the groups fed on the feed of Example 2 and the feed of Comparative Example 2, respectively.

[5] = test system: female homozygous klotho mutant mice; assay: Breeding results of female homozygous klotho mutant mice raised on feed; details: ornithine in feed
Text: Male homozygous klotho mutant mice were raised on the feed of Comparative Example 3 and female homozygous klotho mutant mice were raised on the feed of Example 7 or the feed of Comparative Example 2, both to the age of 8 weeks. These male and female mice were mated and their breeding results were compared between the female group fed on the feed of Example 7 and that fed on the feed of Comparative Example 2. During the mating period, the males were transferred into the cages of females and so fed on the same feeds as the respective females.

NCCC[C@H](N)C(=O)O [ornithine]
Effect on premature aging-like syndrome [1]: inhibitory effects on premature aging-like syndrome
Effect on expression level of kidney Klotho protein [2]: effective in raising the expression level of kidney Klotho protein
Effect on body weight [3]: weight-increasing effect
Effect on life span [4]: effective in prolonging life span
Effect on breeding result [5]: improved the breeding result
